For experiment [1], the system named is Puccinia recondita f. sp. tritici. Description: Fungicidal activity against Puccinia recondita f. sp. tritici / wheat / leaf disc preventative (brown rust). The class given is in vivo. Conditions: foliar, 200 ppm in the applied formulation, wheat leaf segments cv. Kanzler, preventative (inoculated 1 day after application), assessed 7 to 9 days after application, read-out: disease control compared to untreated control leaf disks. The method, boiled down:
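Preventative leaf-segment test: compound sprayed at 200 ppm onto wheat (cv. Kanzler) segments, brown rust spores applied 1 day after. Kept at 19C and 75% rh under 12 h light/dark cycles; disease control versus untreated check read 7 to 9 days post-application.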

The next experiment deals with Uromyces viciae-fabae. In words: Fungicidal activity against Uromyces viciae-fabae / field bean / leaf disc preventative (faba-bean rust). The class given is in vivo. Conditions: foliar, 288 h, 100 ppm in the applied formulation, field bean leaf discs, preventative (inoculated two hours after application), assessed 12 days after application, read-out: disease control compared to untreated control leaf discs. How it is done: Leaf disks or leaf segments of various plant species are cut from plants grown in a greenhouse. The cut leaf disks or segments are placed in multiwell plates (24-well format) onto water agar. The leaf disks are sprayed with a test solution before (preventative) or after (curative) inoculation. Compounds to be tested are prepared as DMSO solutions (max. 10 mg/ml) which are diluted to the appropriate concentration with 0.025% Tween20 just before spraying. The inoculated leaf disks or segments are incubated under defined conditions (temperature, relative humidity, light, etc.) according to the respective test system. A single evaluation of disease level is carried out 3 to 14 days after inoculation, depending on the pathosystem. Percent disease control relative to the untreated check leaf disks or segments is then calculated. General Examples of Liquid Culture Tests in Well Plates:
Example 5: Fungicidal Activity Against Uromyces viciae-fabae/Field Bean/Leaf Disc Preventative (Faba-Bean Rust)
Field bean leaf discs are placed on water agar in multiwell plates (96-well format) and 10 μl of the formulated test compound diluted in acetone and a spreader pipetted onto the leaf disc. Two hours after application leaf discs are inoculated by spraying a spore suspension on the lower leaf surface. The leaf discs are incubated in a climate cabinet at 22° C. with 18 hour day and 70% relative humidity. The activity of a compound is assessed as percent disease control compared to untreated when an appropriate level of disease damage appears in untreated check leaf disks (12 days after application).
The following compounds at 100 ppm in the applied formulation give at least 80% disease control in this test when compared to untreated control leaf discs under the same conditions, which show extensive disease development.

In another experiment the test system is Phakopsora pachyrhizi. Description: Fungicidal activity against Phakopsora pachyrhizi / soybean / leaf disc preventative (Asian soybean rust). In kind it is in vivo. Conditions: foliar, 200 ppm in the applied formulation, soybean leaf disks, preventative (inoculated one day after application), assessed 12 to 14 days after application, read-out: disease control compared to untreated control leaf disks. Put shortly: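 Preventative test: compound applied to soybean leaf discs a day before spore inoculation of the lower surface. Discs kept at 20° C and 75% rh, first 24-36 h in darkness, then under 12 h light/day; disease control relative to untreated discs rated 12 to 14 days post-application.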

For experiment [2], the system named is Glomerella laqenarium (Colletotrichum lagenarium). In words: Fungicidal activity against Glomerella lagenarium (Colletotrichum lagenarium) liquid culture / cucumber / preventative (anthracnose). Conditions: Colletotrichum orbiculare; 20 ppm in the applied formulation; liquid culture in PDB, 24° C., 3 to 4 days after application; read-out: disease control compared to untreated control (inhibition of growth measured photometrically). The class given is cell-based. Put shortly: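 Test compound, applied from DMSO solution, is combined with PDB containing conidia taken from cryogenic storage. After 3–4 days at 24 °C, growth is measured photometrically and antifungal activity expressed as percent relative to untreated control.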

`O=C(N[C@H]1CCN(Cc2ccccc2)C1)c1ccc(-c2noc(C(F)(F)F)n2)cc1` [Compound 1a.6, N-[(3S)-1-benzylpyrrolidin-3-yl]-4-[5-(trifluoromethyl)-1,2,4-oxadiazol-3-yl]benzamide]: the pest or weed control at 200 ppm in experiment [1] is not below 80%. Besides, the pest or weed control at 100 ppm with Uromyces viciae-fabae is not below 80%.

As for `CN(CC1CCCCN1C)C(=O)c1ccc(-c2noc(C(F)(F)F)n2)cc1` (stereo not drawn) [Compound 1a.10, N-methyl-N-[(1-methyl-2-piperidyl)methyl]-4-[5-(trifluoromethyl)-1,2,4-oxadiazol-3-yl]benzamide], in experiment [1], the pest or weed control at 200 ppm was not below 80%. For the same molecule, the pest or weed control at 100 ppm with Uromyces viciae-fabae was not below 80%.

Turning to `CC(C)(C)OC(=O)N1CCC(CNC(=O)c2ccc(-c3noc(C(F)(F)F)n3)cc2)CC1` [Compound 1a.11, tert-butyl 4-[[[4-[5-(trifluoromethyl)-1,2,4-oxadiazol-3-yl]benzoyl]amino]methyl]piperidine-1-carboxylate], in experiment [1], the pest or weed control at 200 ppm was not below 80%. Further, the pest or weed control at 100 ppm in the experiment with Uromyces viciae-fabae is not below 80%.

As for `CCN1CCC[C@@H]1CNC(=O)c1ccc(-c2noc(C(F)(F)F)n2)cc1F` [Compound 1b.1, N-[[(2R)-1-ethylpyrrolidin-2-yl]methyl]-2-fluoro-4-[5-(trifluoromethyl)-1,2,4-oxadiazol-3-yl]benzamide], the pest or weed control at 200 ppm (in experiment [1]; with Phakopsora pachyrhizi) was not below 80% each time. For the same molecule, the pest or weed control at 100 ppm in the experiment with Uromyces viciae-fabae was not below 80%.

`O=C(NC1CCN(Cc2ccccc2)CC1)c1ccc(-c2noc(C(F)(F)F)n2)cc1F` [Compound 1b.3, N-(1-benzyl-4-piperidyl)-2-fluoro-4-[5-(trifuoromethyl)-1,2,4-oxadiazol-3-yl]benzamide]: the pest or weed control at 200 ppm (in experiment [1]; in the experiment with Phakopsora pachyrhizi) was not below 80% in each case. For the same molecule, the pest or weed control at 100 ppm in the experiment with Uromyces viciae-fabae was not below 80%.

With `CCOC(=O)N1CCC(NC(=O)c2ccc(-c3noc(C(F)(F)F)n3)cc2F)CC1` [Compound 1b.4, ethyl 4-[[2-fluoro-4-[5-(trifluoromethyl)-1,2,4-oxadiazol-3-yl]benzoyl]amino]piperidine-1-carbonylate], in experiment [1], the pest or weed control at 200 ppm was not below 80%. Moreover, the pest or weed control at 100 ppm with Uromyces viciae-fabae was not below 80%.

As to `CN(C(=O)c1ccc(-c2noc(C(F)(F)F)n2)cc1F)C1CCSC1` (stereo not drawn) [Compound 1b.8, 2-fluoro-N-methyl-N-tetrahydrothiophen-3-yl-4-[5-(trifluoromethyl)-1,2,4-oxadiazol-3-yl]benzamide], the pest or weed control at 200 ppm in experiment [1] was not below 80%. For the same molecule, in the experiment with Uromyces viciae-fabae, the pest or weed control at 100 ppm is not below 80%.

Consider `O=C(NC1CCSC1)c1ccc(-c2noc(C(F)(F)F)n2)cc1F` (stereo not drawn) [Compound 1b.11, 2-fluoro-N-tetrahydrothiophen-3-yl-4-[5-(trifluoromethyl)-1,2,4-oxadiazol-3-yl]benzamide], for which the pest or weed control at 200 ppm in experiment [1] is not below 80%. Further, in the experiment with Uromyces viciae-fabae, the pest or weed control at 100 ppm is not below 80%.

As to `CC1CCC(NC(=O)c2ccc(-c3noc(C(F)(F)F)n3)cc2)CC1` (stereo not drawn) [Compound 2a.6, N-(4-methylcyclohexyl)-4-[5-(trifluoromethyl)-1,2,4-oxadiazol-3-yl]benzamide], the pest or weed control at 200 ppm (in experiment [1]; in the experiment with Phakopsora pachyrhizi) was not below 80% throughout. The pest or weed control at 100 ppm in the experiment with Uromyces viciae-fabae is not below 80%.

In the case of `O=C(NC1(Cc2ccc(Cl)cc2)CC1)c1ccc(-c2noc(C(F)(F)F)n2)cc1` [Compound 2a.7, N-[1-[(4-chlorophenyl)methyl]cyclopropyl]-4-[5-(trifluoromethyl)-1,2,4-oxadiazol-3-yl]benzamide], the pest or weed control at 200 ppm (in experiment [1]; in the experiment on Phakopsora pachyrhizi) was not below 80% in each case. In addition, the pest or weed control at 100 ppm in the experiment with Uromyces viciae-fabae was not below 80%.

Consider `C#CC1(NC(=O)c2ccc(-c3noc(C(F)(F)F)n3)cc2F)CCCCC1` [Compound 2b.2, N-(1-ethynylcyclohexyl)-2-fluoro-4-[5-(trifluoromethyl)-1,2,4-oxadiazol-3-yl]benzamide], for which the pest or weed control at 100 ppm in the experiment with Uromyces viciae-fabae is not below 80%. The inhibition at 20 ppm in experiment [2] was not below 80%. For the same molecule, the pest or weed control at 200 ppm in the experiment with Phakopsora pachyrhizi is not below 80%.

With `O=C(NC1(C2CC2)CC1)c1ccc(-c2noc(C(F)(F)F)n2)cc1F` [Compound 2b.6, N-(1-cyclopropylcyclo-propyl)-2-fluoro-4-[5-(trifluoromethyl)-1,2,4-oxadiazol-3-yl]benzamide], in the experiment on Uromyces viciae-fabae, the pest or weed control at 100 ppm is not below 80%. For the same molecule, the inhibition at 20 ppm in experiment [2] was not below 80%. In addition, in the experiment with Phakopsora pachyrhizi, the pest or weed control at 200 ppm was not below 80%.

As to `CC1CCCC(NC(=O)c2ccc(-c3noc(C(F)(F)F)n3)cc2F)C1` (stereo not drawn) [Compound 2b.10, 2-fluoro-N-(3-methylcyclohexyl)-4-[5-(trifluoromethyl)-1,2,4-oxadiazol-3-yl]benzamide], the pest or weed control at 200 ppm in experiment [1] is not below 80%. Further, in the experiment with Uromyces viciae-fabae, the pest or weed control at 100 ppm is not below 80%.

As for `O=C(NCC1CC(F)(F)C1(F)F)c1ccc(-c2noc(C(F)(F)F)n2)cc1Cl` (stereo not drawn) [Compound 2b.14, 2-chloro-N-[(2,2,3,3-tetrafluorocyclo-butyl)methyl]-4-[5-(trifluoromethyl)-1,2,4-oxadiazol-3-yl]benzamide], the pest or weed control at 200 ppm in experiment [1] was not below 80%. Also, the pest or weed control at 100 ppm in the experiment on Uromyces viciae-fabae was not below 80%.

For the molecule `CC(NC(=O)c1ccc(-c2noc(C(F)(F)F)n2)cc1Cl)C1CC1` (stereo not drawn) [Compound 2b.15, 2-chloro-N-(1-cyclopropylethyl)-4-[5-(trifluoromethyl)-1,2,4-oxadiazol-3-yl]benzamide], the pest or weed control at 200 ppm (in experiment [1]; in the experiment on Phakopsora pachyrhizi) was not below 80% throughout. In addition, the pest or weed control at 100 ppm with Uromyces viciae-fabae is not below 80%.

Take `O=C(NC1(C2CC2)CC1)c1ccc(-c2noc(C(F)(F)F)n2)cc1Cl` [Compound 2b.16, 2-chloro-N-(1-cyclopropylcyclo-propyl)-4-[5-(trifluoromethyl)-1,2,4-oxadiazol-3-yl]benzamide]: in experiment [1], the pest or weed control at 200 ppm is not below 80%. In addition, the pest or weed control at 100 ppm in the experiment on Uromyces viciae-fabae was not below 80%.

Turning to `O=C(NCCCCc1ccccc1)c1ccc(-c2noc(C(F)(F)F)n2)cc1F` [Compound 4b.10, 2-fluoro-N-(4-phenylbutyl)-4-[5-(trifluoromethyl)-1,2,4-oxadiazol-3-yl]benzamide], the pest or weed control at 100 ppm with Uromyces viciae-fabae is not below 80%. In experiment [2], the inhibition at 20 ppm was not below 80%. The pest or weed control at 200 ppm in the experiment with Phakopsora pachyrhizi was not below 80%.

In the case of `CCOc1ccc(CN(C(=O)c2ccc(-c3noc(C(F)(F)F)n3)cc2F)C(C)C)cc1OCC` [Compound 4b.11, N-[(3,4-diethoxyphenyl)methyl]-2-fluoro-N-isopropyl-4-[5-(trifluoromethyl)-1,2,4-oxadiazol-3-yl]benzamide], in experiment [1], the pest or weed control at 200 ppm is not below 80%. In addition, the pest or weed control at 100 ppm with Uromyces viciae-fabae is not below 80%. For the same molecule, the inhibition at 20 ppm in experiment [2] was not below 80%.

As for `O=C(NCc1ccc(F)c(Br)c1)c1ccc(-c2noc(C(F)(F)F)n2)cc1F` [Compound 4b.13, N-[(3-bromo-4-fluoro-phenyl)methyl]-2-fluoro-4-[5-(trifluoromethyl)-1,2,4-oxadiazol-3-yl]benzamide], in experiment [1], the pest or weed control at 200 ppm was not below 80%. In addition, the pest or weed control at 100 ppm in the experiment with Uromyces viciae-fabae was not below 80%.

For the molecule `COc1ccc(CNC(=O)c2ccc(-c3noc(C(F)(F)F)n3)cc2F)c(OC)c1` [Compound 4b.14, N-[(2,4-dimethoxyphenyl)methyl]-2-fluoro-4-[5-(trifluoromethyl)-1,2,4-oxadiazol-3-yl]benzamide], the pest or weed control at 200 ppm in experiment [1] was not below 80%. In the experiment with Uromyces viciae-fabae, the pest or weed control at 100 ppm is not below 80%.

Take `O=C(Nc1nc(Br)n[nH]1)c1ccc(-c2noc(C(F)(F)F)n2)cc1F` [Compound 5b.10, N-(3-bromo-1H-1,2,4-triazol-5-yl)-2-fluoro-4-[5-(trifluoromethyl)-1,2,4-oxadiazol-3-yl]benzamide]: the pest or weed control at 200 ppm in experiment [1] is not below 80%. In the experiment with Uromyces viciae-fabae, the pest or weed control at 100 ppm is not below 80%. In addition, in experiment [2], the inhibition at 20 ppm is not below 80%.

Take `O=C(NCCCn1ccnc1)c1ccc(-c2noc(C(F)(F)F)n2)cc1F` [Compound 5b.12, 2-fluoro-N-(3-imidazol-1-ylpropyl)-4-[5-(trifluoromethyl)-1,2,4-oxadiazol-3-yl]benzamide]: the pest or weed control at 100 ppm in the experiment on Uromyces viciae-fabae was not below 80%. Moreover, the pest or weed control at 200 ppm with Phakopsora pachyrhizi is not below 80%.

Source of the values: patent publication US10959432B2, “Microbiocidal oxadiazole derivatives” (Syngenta Participations AG, priority 2016, dated 2021).
